# Patent publication US9145354B2, “Pharmaceutical compounds” (priority 2011, dated 2015)
# Read-outs that look alike come from different tables or passages of the source.
# Assays:
# [1] = test system: HCV subgenomic replicon in Huh-7 cells; assay: Replicon Assay (Example B), luciferase readout EC50; type: cell-based
# Method in brief: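 Huh-7 cells carrying a luciferase-neo HCV subgenomic replicon (NS3–NS5b) were treated with semilog compound dilutions (0.1% DMSO final), in triplicate, for 72 h at 37° C. EC50 came from Bright-Glo luciferase signal as a proxy for replicon RNA; viability was read by Alamar blue.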
# [2] = test system: Huh-7 cells persistently infected with the HCV subgenomic replicon; assay: Replicon Assay (Example B), Alamar Blue cytotoxicity CC50; type: cell-based; conditions: lower value of the cell pair
# Method in brief: (§1)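 Huh-7 cells carrying a luciferase/neo HCV subgenomic replicon (NS3–NS5b) were treated with semilog compound dilutions in triplicate (0.1% DMSO) for 72 h at 37 °C. Viability came from Alamar blue resazurin-to-resorufin fluorescence (535/590 nm) for CC50. EC50 came from Bright-Glo luciferase luminescence as a proxy for HCV RNA.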
# full length NS3/4a = full length NS3/4a (Hepatitis C virus genotype 1b (isolate BK) (HCV), UniProt P26663); assay: NS3 Protease Assay (Example A), FRET-based; type: biochemical
# full length NS3/4a, sequence (P26663 1027-1657): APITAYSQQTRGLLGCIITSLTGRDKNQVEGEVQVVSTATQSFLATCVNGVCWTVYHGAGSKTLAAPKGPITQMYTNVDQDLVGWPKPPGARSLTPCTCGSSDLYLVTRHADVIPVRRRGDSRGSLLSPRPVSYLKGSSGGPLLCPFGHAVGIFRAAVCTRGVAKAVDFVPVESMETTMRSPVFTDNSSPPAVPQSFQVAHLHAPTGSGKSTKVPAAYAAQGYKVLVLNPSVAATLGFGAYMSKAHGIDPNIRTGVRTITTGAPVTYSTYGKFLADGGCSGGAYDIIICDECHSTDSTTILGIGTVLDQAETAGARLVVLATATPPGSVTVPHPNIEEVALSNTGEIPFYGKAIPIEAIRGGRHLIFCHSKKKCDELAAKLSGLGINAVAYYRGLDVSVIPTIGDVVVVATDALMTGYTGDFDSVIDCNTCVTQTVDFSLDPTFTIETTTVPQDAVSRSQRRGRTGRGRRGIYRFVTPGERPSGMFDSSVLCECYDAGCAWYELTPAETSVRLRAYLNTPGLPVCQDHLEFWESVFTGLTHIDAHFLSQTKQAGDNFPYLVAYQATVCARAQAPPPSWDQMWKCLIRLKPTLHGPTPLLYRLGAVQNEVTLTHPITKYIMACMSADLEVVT
# Method in brief: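 Full-length NS3/4a, made in-house, with an NS4A/B-derived peptide substrate carrying QXL520 quencher and 5-FAMsp fluorophore. Buffer 50 mM Tris pH8, 20 mM DTT, 1% CHAPS, 10% glycerol, 5% DMSO. Fluorescence followed 30 min at room temperature; IC50 from initial rates of replicate curves.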
# [3] = test system: compound resistant HCV replicon variants in replicon bearing cells; assay: Colony forming assay for compound resistant HCV replicon variants (Example C); type: cell-based; conditions: up to 10x EC50, 1 mg/ml geneticin, 24 days, coomasie blue staining
# Experimental: The existence of compound resistant HCV replicon quasispecies was analysed using colony forming assays, where the emergence of compound resistant HCV replicon variants can allow production sufficient replicon encoded neomycin for cellular survival in medium containing 1 mg/ml geneticin (Life Technologies). 4,000 replicon bearing cells were plated/well on 12 well plates, and allowed to adhere overnight. […] The medium used also contained 1 mg/ml geneticin. Plates were then incubated at 37° C. in an atmosphere of 5% CO2 and air for 24 days the medium/compound solution with 1 mg/ml gentamicin was replaced twice every 7 days, before staining surviving colonies with coomasie blue.
# [4] = Replicon Assay (Example B), Alamar Blue cytotoxicity CC50; type: cell-based; conditions: human, lower value of the cell pair
# Method in brief: as §1
# [5] = Hepatitis C virus, Huh-7, replicon assay, luciferase readout, upper value of the cell pair, read-out: Assay B EC50
# [6] = HCV NS3 protease assay, full length NS3/4a, read-out: Assay A IC50 (μM) average
# [7] = read-out: IC50 against the protease activity of the full length NS3/4a
SMILES,"EC50 ([1]; replicon assay, luciferase readout, upper value of the cell pair, read-out: Assay B EC50)",CC50 [2],"EC50 ([1]; Hepatitis C virus, Huh-7, pre-determined EC50 used to set concentrations in combination studies, read-out: EC50 (replicon))","EC50 [1, 5]",IC50 (full length NS3/4a; [6]),emergence of compound resistant colonies [3],CC50 at 72 h [4],IC50 (full length NS3/4a; [7])
"CCC(NC1CCCC1C(N)=O)c1ccc(Cl)c(C(=O)c2ccc(N)nc2)c1F (racemic) [Example 126, 2-{[1-{3-[(6-aminopyridin-3-yl)carbonyl]-4-chloro-2-fluorophenyl}propyl]amino} cyclopentane-1-carboxamide]",91 nM,> 3000 nM,,,,,,
"CC[C@@H](N[C@@H](C)CC(N)=O)c1ccc(Cl)c(C(=O)c2ccccc2)c1F [Example 84, (3S)-3-{[(1R)-1-(3-benzoyl-4-chloro-2-fluorophenyl)-propyl]-amino}butanamide]",,,6 nM,6 nM,0.057 µM,prevented,> 3000 nM,
"CC(C)C[C@@H](N[C@@H](C)CC(N)=O)c1ccc(Cl)c(C(=O)c2ccc(N)nc2)c1F [Example 269, (3S)-3-{[(1R)-1-{3-[(6-aminopyridin-3-yl)carbonyl]-4-chloro-2-fluorophenyl}-3-methylbutyl]amino}-butanamide]",,,,70 nM,1.1 µM,,> 3000 nM,1 to 5 µM
"C[C@@H](CC(N)=O)N[C@@H](c1ccc(Cl)c(C(=O)c2ccc3c(c2)OCC(=O)N3)c1F)C1CC1 [Example 270, (3S)-3-{[(R)-{4-chloro-2-fluoro-3-[(3-oxo-3,4-dihydro-2H-1,4-benzoxazin-7-yl)carbonyl]phenyl} (cyclopropyl)methyl]amino} butanamide]",,,,6 nM,0.18 µM,,> 3000 nM,< 1 µM
"CC[C@@H](N[C@@H](C)CC(N)=O)c1ccc(OC)c(C(=O)c2ccc(N)c(C)c2)c1F [Example 273, (3S)-3-{[(1R)-1-{3-[(4-amino-3-methylphenyl)carbonyl]-2-fluoro-4-methoxyphenyl}propyl]amino}butanamide]",,,,27 nM,0.14 µM,,> 3000 nM,
"COc1cc(C(=O)c2c(Cl)ccc([C@H](N[C@@H](C)CC(N)=O)C3CC3)c2F)ccc1C#N [Example 275, (3S)-3-{[(R)-{4-chloro-3-[(4-cyano-3-methoxyphenyl)carbonyl]-2-fluorophenyl}(cyclopropyl)methyl]amino}butanamide]",,,,6.7 nM,0.13 µM,,> 3000 nM,
"CC[C@@H](N[C@@H](C)CC(N)=O)c1ccc(OC)c(C(=O)c2cccc(C#N)c2)c1F [Example 276, (3S)-3-{[(1R)-1-{3-[(3-cyanophenyl)carbonyl]-2-fluoro-4-methoxyphenyl}propyl]amino}butanamide]",,,,27 nM,0.11 µM,,> 3000 nM,
"C[C@@H](CC(N)=O)N[C@H](CC1CC1)c1ccc(Cl)c(C(=O)c2ccc(N)nc2)c1F [Example 278, (3S)-3-{[(1R)-1-{3-[(6-aminopyridin-3-yl)carbonyl]-4-chloro-2-fluorophenyl}-2-cyclopropylethyl]amino} butanamide]",,,,27 nM,0.5 µM,,> 3000 nM,
"[2H]C([2H])([2H])C([2H])([2H])[C@@H](N[C@@H](C)CC(N)=O)c1ccc(Cl)c(C(=O)c2ccc3c(c2)OCC(=O)N3)c1F [Example 280, (3S)-3-{[(1R)-1-{4-chloro-2-fluoro-3-[(3-oxo-3,4-dihydro-2H-1,4-benzoxazin-7-yl)carbonyl]phenyl}(2,2,3,3,3-pentadeuteryl)propyl]amino} butanamide]",,,,25 nM,0.3 µM,,> 3000 nM,
